These results are taken from BindingDB's records for PubMed 36812150 (China Pharmaceutical University, 2023).

In the experiment the target is Sucrase-isomaltase, intestinal (Rattus norvegicus, UniProt P23739). Briefly: Binding affinity to sucrase in rat small intestinal brush border membrane vesicles assessed as inhibition constant using sucrose as substrate incubated for 30 mins by glucose-oxidase method.
Sequence of Sucrase-isomaltase, intestinal (P23739 1-1013 limits assumed): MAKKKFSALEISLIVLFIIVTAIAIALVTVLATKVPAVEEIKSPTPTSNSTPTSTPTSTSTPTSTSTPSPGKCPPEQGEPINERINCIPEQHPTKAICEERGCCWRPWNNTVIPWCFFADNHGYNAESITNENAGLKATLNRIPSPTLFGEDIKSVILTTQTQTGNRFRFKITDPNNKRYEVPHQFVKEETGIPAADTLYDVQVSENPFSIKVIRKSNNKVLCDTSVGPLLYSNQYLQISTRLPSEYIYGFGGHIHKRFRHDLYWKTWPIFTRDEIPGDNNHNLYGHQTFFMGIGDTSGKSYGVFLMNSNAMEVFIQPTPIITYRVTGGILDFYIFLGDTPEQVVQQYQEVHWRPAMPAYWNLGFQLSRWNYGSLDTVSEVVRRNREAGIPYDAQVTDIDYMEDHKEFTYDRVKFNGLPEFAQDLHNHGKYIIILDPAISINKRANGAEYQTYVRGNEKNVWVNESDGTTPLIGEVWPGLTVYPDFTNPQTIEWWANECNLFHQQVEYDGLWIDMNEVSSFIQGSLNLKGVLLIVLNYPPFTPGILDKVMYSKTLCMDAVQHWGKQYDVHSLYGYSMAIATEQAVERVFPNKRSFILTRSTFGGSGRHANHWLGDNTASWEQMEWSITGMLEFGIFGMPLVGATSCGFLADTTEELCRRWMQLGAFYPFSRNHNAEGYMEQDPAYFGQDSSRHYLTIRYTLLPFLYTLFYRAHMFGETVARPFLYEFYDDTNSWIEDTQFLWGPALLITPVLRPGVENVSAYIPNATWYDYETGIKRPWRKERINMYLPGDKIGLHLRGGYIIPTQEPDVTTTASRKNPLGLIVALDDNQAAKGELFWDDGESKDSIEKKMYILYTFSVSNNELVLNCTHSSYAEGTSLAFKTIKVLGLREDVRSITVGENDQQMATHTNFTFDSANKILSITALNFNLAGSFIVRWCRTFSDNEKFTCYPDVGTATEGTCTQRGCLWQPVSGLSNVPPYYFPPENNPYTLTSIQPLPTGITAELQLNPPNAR
Sequence of Sucrase-isomaltase, intestinal (P23739 1014-1841 limits assumed): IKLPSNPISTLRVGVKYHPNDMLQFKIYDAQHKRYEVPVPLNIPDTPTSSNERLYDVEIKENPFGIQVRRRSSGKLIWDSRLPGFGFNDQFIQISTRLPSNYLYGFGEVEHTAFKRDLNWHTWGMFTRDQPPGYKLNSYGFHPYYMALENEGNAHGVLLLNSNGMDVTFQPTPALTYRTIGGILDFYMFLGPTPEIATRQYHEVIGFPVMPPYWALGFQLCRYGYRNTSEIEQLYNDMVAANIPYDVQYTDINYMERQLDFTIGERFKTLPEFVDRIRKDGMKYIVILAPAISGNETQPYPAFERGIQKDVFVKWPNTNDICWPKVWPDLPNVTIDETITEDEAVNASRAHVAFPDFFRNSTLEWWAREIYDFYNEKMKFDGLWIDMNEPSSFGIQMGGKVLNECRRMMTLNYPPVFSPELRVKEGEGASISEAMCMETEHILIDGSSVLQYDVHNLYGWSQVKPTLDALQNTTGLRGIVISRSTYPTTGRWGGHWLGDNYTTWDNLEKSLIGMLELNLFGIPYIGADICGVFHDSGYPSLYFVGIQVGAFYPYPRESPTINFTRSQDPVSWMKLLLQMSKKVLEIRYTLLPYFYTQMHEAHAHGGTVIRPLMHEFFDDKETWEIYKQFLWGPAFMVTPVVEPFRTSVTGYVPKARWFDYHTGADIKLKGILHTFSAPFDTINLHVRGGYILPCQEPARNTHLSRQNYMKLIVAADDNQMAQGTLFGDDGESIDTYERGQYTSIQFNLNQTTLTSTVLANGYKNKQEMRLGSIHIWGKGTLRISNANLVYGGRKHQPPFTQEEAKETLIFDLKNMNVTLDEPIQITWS
Regarding `OC[C@@H]1[C@@H](O)[C@H](O)C[S@+]1C[C@@H](O)[C@H]1OC(c2ccccc2)OC[C@H]1O` (stereo not given in full), the Ki is 310 nM.

With `O=[N+]([O-])c1ccccc1C1OC[C@@H](O)[C@@H]([C@H](O)C[S@@+]2C[C@@H](O)[C@H](O)[C@H]2CO)O1` (stereo not given in full), the Ki was determined as 160 nM.

Regarding `OC[C@@H]1[C@@H](O)[C@H](O)C[S@+]1C[C@@H](O)[C@H]1OC(c2ccccc2C(F)(F)F)OC[C@H]1O` (stereo not given in full), the Ki is 190 nM.

For `OC[C@@H]1[C@@H](O)[C@H](O)C[S@+]1C[C@@H](O)[C@H]1OC(c2ccccc2Cl)OC[C@H]1O` (stereo not given in full), the Ki amounted to 210 nM.

Consider `OC[C@@H]1[C@@H](O)[C@H](O)C[S@+]1C[C@@H](O)[C@H]1OC(c2ccccc2F)OC[C@H]1O` (stereo not given in full), for which the Ki was found to be 240 nM.
